Data reported in PMC4965013, “Open Source Drug Discovery with the Malaria Box Compound Collection for Neglected Diseases and Beyond” (PLoS Pathogens, 2016).

Experiments:
[1] = system: P. falciparum 3D7 trophozoites; assay: Metabolomic fingerprint profiling LC-MS; type: cell-based, Plasmodium falciparum; parameters: UDP-D-glucose / ADP-D-glucose: unit not given here; settings: for Acetyllysine / N-acetyl-L-ornithine / N-carbamoyl-L-aspartate / NADPH / dAMP / dCMP / dTDP / dTMP / dTTP / dihydroorotate / orotate / DLH / DLS/SDL/SID / PD / PEE / PVNF / 3-phosphoglycerate / ADP-D-glucose / ATP / CDP / D-sedoheptulose-1/7-phosphate / FAD / GMP / NAD+ / NADP+ / Octoluse Bisphosphate / Pyroglutamic acid / UDP-D-glucose / UDP-D-glucuronate / UDP-N-acetyl-glucosamine / UDP / UMP / UTP / a-ketoglutarate / citrate/isocitrate / cytidine / dATP / dGMP/AMP / fumarate / glucose-1/6-phosphate / glycerate / guanine / guanosine / hypoxanthine / indole / inosine / nicotinate / ornithine / phosphoenolpyruvate / pyruvate / ribose-phosphate / sarcosine/alanine / sn-glycerol-3-phosphate / succinate/methylmalonic acid / uridine / xanthosine: S2 Table Metabolomics; for Acetyllysine: metabolite Acetyllysine; for N-acetyl-L-ornithine: metabolite N-acetyl-L-ornithine; for N-carbamoyl-L-aspartate: metabolite N-carbamoyl-L-aspartate; for NADPH: metabolite NADPH; for dAMP: metabolite dAMP; for dCMP: metabolite dCMP; for dTDP: metabolite dTDP; for dTMP: metabolite dTMP; for dTTP: metabolite dTTP; for dihydroorotate: metabolite dihydroorotate; for orotate: metabolite orotate; for DLH: peptide DLH; for DLS/SDL/SID: peptide DLS/SDL/SID; for PD: peptide PD; for PEE: peptide PEE; for PVNF: peptide PVNF; for 3-phosphoglycerate: metabolite 3-phosphoglycerate; for ADP-D-glucose: metabolite ADP-D-glucose; for ATP: metabolite ATP; for CDP: metabolite CDP; for CDP / D-sedoheptulose-1/7-phosphate / GMP / Octoluse Bisphosphate / UDP / UMP / UTP / citrate/isocitrate / dGMP/AMP / fumarate / glucose-1/6-phosphate / glycerate / guanine / guanosine / inosine / pyruvate / sarcosine/alanine / succinate/methylmalonic acid / uridine / xanthosine: change in metabolite level after compound treatment; for D-sedoheptulose-1/7-phosphate: metabolite D-sedoheptulose-1/7-phosphate; for FAD: metabolite FAD; for GMP: metabolite GMP; for NAD+: metabolite NAD+; for NADP+: metabolite NADP+; for Octoluse Bisphosphate: metabolite Octoluse Bisphosphate; for Pyroglutamic acid: metabolite Pyroglutamic acid; for UDP-D-glucose: metabolite UDP-D-glucose; for UDP-D-glucuronate: metabolite UDP-D-glucuronate; for UDP-N-acetyl-glucosamine: metabolite UDP-N-acetyl-glucosamine; for UDP: metabolite UDP; for UMP: metabolite UMP; for UTP: metabolite UTP; for a-ketoglutarate: metabolite a-ketoglutarate; for citrate/isocitrate: metabolite citrate/isocitrate; for cytidine: metabolite cytidine; for dATP: metabolite dATP; for dGMP/AMP: metabolite dGMP/AMP; for fumarate: metabolite fumarate; for glucose-1/6-phosphate: metabolite glucose-1/6-phosphate; for glycerate: metabolite glycerate; for guanine: metabolite guanine; for guanosine: metabolite guanosine; for hypoxanthine: metabolite hypoxanthine; for indole: metabolite indole; for inosine: metabolite inosine; for 2_3-Diphosphoglyceric acid / 4-phosphopantothenate / 6-phospho-D-gluconate / FMN / IMP / Pyrophosphate / Sedoheptoluse bisphosphate / cyclic-AMP / glutathione disulfide / lactate / myo-inositol: metabolite level change after treatment; for nicotinate: metabolite nicotinate; for ornithine: metabolite ornithine; for phosphoenolpyruvate: metabolite phosphoenolpyruvate; for pyruvate: metabolite pyruvate; for ribose-phosphate: metabolite ribose-phosphate; for sarcosine/alanine: metabolite sarcosine/alanine; for sn-glycerol-3-phosphate: metabolite sn-glycerol-3-phosphate; for succinate/methylmalonic acid: metabolite succinate/methylmalonic acid; for uridine: metabolite uridine; for xanthosine: metabolite xanthosine
[2] = system: P. falciparum; assay: EC50 listed in S2 Table Metabolomics (used to set the concentration tested); type: cell-based; settings: Plasmodium falciparum; EC50 used for Factor_XEC50 in metabolomics; read-out: EC50_nM

`COc1ccc(Br)cc1C1Nc2ccc3ccccc3c2C2=C1C(=O)CC(c1ccccc1)C2` (stereo not shown) [MMV020885] gave an Acetyllysine [1] of -0.2018, a N-acetyl-L-ornithine [1] of 0.05879 and a N-carbamoyl-L-aspartate [1] of 0.2499. It also gave an NADPH [1] of 0.3881, a dAMP [1] of -0.07633 and a dCMP [1] of -0.1829. The dTDP [1] was -0.08159, the dTMP [1] was -0.06085 and the dTTP [1] was 0.08356. For the same molecule, the dihydroorotate [1] was 0.4211, the orotate [1] was -0.07163 and the DLH [1] was 0.1131. The DLS/SDL/SID [1] was 0.0252, the PD [1] was -0.01204 and the PEE [1] was -0.02185. It also gave a PVNF [1] of 0.06588, a 3-phosphoglycerate [1] of 0.1773 and an ADP-D-glucose [1] of 0.1062. The ATP [1] was 0.1529, the CDP [1] was -0.1573 and the D-sedoheptulose-1/7-phosphate [1] was -0.3333. For the same molecule, the FAD [1] was 0.09744, the GMP [1] was 0.2606 and the “NAD+” value [1] was -0.4069. The “NADP+” value [1] was 0.1167, the “Octoluse Bisphosphate” value [1] was 0.1001 and the Pyroglutamic acid [1] was 0.05012. The UDP-D-glucose [1] was 0.09185, the UDP-D-glucuronate [1] was 0.09622 and the UDP-N-acetyl-glucosamine [1] was 0.0596. The UDP [1] was -0.2367, the UMP [1] was 0.2791 and the UTP [1] was -0.3268. The a-ketoglutarate [1] was 0.1759, the citrate/isocitrate [1] was -0.004418 and the cytidine [1] was -0.005151. The dATP [1] was 0.1038, the dGMP/AMP [1] was -0.1164 and the fumarate [1] was 0.1396. It also gave a glucose-1/6-phosphate [1] of 0.3285, a glycerate [1] of 0.153 and a guanine [1] of 0.03354. For the same molecule, the guanosine [1] was 0.1241, the hypoxanthine [1] was 0.09912 and the indole [1] was 0.3168. It also gave an inosine [1] of 0.1551, a 2_3-Diphosphoglyceric acid [1] of 0.06597 and a 4-phosphopantothenate [1] of 0.04165. For the same molecule, the 6-phospho-D-gluconate [1] was 0.04292, the FMN [1] was 0.1362 and the IMP [1] was 0.02368. It also gave a Pyrophosphate [1] of 0.2656, a Sedoheptoluse bisphosphate [1] of 0.01639 and a cyclic-AMP [1] of -0.09684. The glutathione disulfide [1] was 0.06546, the lactate [1] was 0.1283 and the myo-inositol [1] was 0.176. For the same molecule, the nicotinate [1] was 0.1246, the ornithine [1] was -0.2474 and the phosphoenolpyruvate [1] was 0.1975. For the same molecule, the pyruvate [1] was 0.1649, the ribose-phosphate [1] was 0.4239 and the sarcosine/alanine [1] was -0.04603. The sn-glycerol-3-phosphate [1] was 0.03018, the succinate/methylmalonic acid [1] was 0.08193 and the uridine [1] was 0.101. For the same molecule, the xanthosine [1] was 0.04674 and the EC50 [2] was 180 nM.

In the case of `Cc1ccc(-c2cc3c(nn2)-c2ccccc2C3=O)cc1` [MMV666021], the Acetyllysine [1] is reported as -0.3916, the N-acetyl-L-ornithine [1] is reported as -0.1425 and the N-carbamoyl-L-aspartate [1] is reported as 3.794. It also gave an NADPH [1] of 1.165, a dAMP [1] of -0.6653 and a dCMP [1] of -0.7362. It also gave a dTDP [1] of -1.533, a dTMP [1] of -1.5256 and a dTTP [1] of -1.181. It also gave a dihydroorotate [1] of 4.247, an orotate [1] of -2.195 and a DLH [1] of 0.5354. For the same molecule, the DLS/SDL/SID [1] was 0.5895, the PD [1] was 0.02372 and the PEE [1] was 0.1996. For the same molecule, the PVNF [1] was 0.3334, the 3-phosphoglycerate [1] was 0.4336 and the ADP-D-glucose [1] was 0.0706. For the same molecule, the ATP [1] was 0.08889, the CDP [1] was -1.433 and the D-sedoheptulose-1/7-phosphate [1] was -0.7013. For the same molecule, the FAD [1] was 0.04196, the GMP [1] was 1.198 and the “NAD+” value [1] was -0.07934. For the same molecule, the “NADP+” value [1] was 0.07896, the “Octoluse Bisphosphate” value [1] was 0.0421 and the Pyroglutamic acid [1] was -0.4992. It also gave a UDP-D-glucose [1] of 0.003691, a UDP-D-glucuronate [1] of -0.1073 and a UDP-N-acetyl-glucosamine [1] of -0.2024. The UDP [1] was -2.005, the UMP [1] was -0.6482 and the UTP [1] was -1.713. For the same molecule, the a-ketoglutarate [1] was -0.6601, the citrate/isocitrate [1] was -2.126 and the cytidine [1] was 0.5518. It also gave a dATP [1] of 0.3766, a dGMP/AMP [1] of -0.5358 and a fumarate [1] of 0.2361. It also gave a glucose-1/6-phosphate [1] of 0.01993, a glycerate [1] of -1.131 and a guanine [1] of -0.835. The guanosine [1] was -1.803, the hypoxanthine [1] was -0.06084 and the indole [1] was -0.09156. It also gave an inosine [1] of -0.5269, a 2_3-Diphosphoglyceric acid [1] of -0.1865 and a 4-phosphopantothenate [1] of -0.7776. For the same molecule, the 6-phospho-D-gluconate [1] was 0.009051, the FMN [1] was 0.04698 and the IMP [1] was -0.1163. It also gave a Pyrophosphate [1] of -0.09516, a Sedoheptoluse bisphosphate [1] of -0.2318 and a cyclic-AMP [1] of -0.2358. It also gave a glutathione disulfide [1] of -0.3199, a lactate [1] of -0.9153 and a myo-inositol [1] of -1.23. It also gave a nicotinate [1] of -1.397, an ornithine [1] of 0.08018 and a phosphoenolpyruvate [1] of 0.1844. For the same molecule, the pyruvate [1] was -1.786, the ribose-phosphate [1] was 0.5392 and the sarcosine/alanine [1] was -0.3874. The sn-glycerol-3-phosphate [1] was 0.4697, the succinate/methylmalonic acid [1] was -0.7859 and the uridine [1] was -1.3045. The xanthosine [1] was -0.5693 and the EC50 [2] was 94.4 nM.
